Patent US20210393633A1, “INHIBITORS OF HUMAN IMMUNODEFICIENCY VIRUS REPLICATION” (ViiV HEALTHCARE UK (NO.5) LIMITED, priority 2018, published 2021)
pEC50: −log10 of the molar value.

What was measured:
[1] = Compound cytotoxicity, XTT-based colorimetric assay; format: cell-based; conditions: human; uninfected MT2 cells, day 4, XTT
Experimental: Compound cytotoxicity and the corresponding CC50 values were determined using the same protocol as described in the antiviral assay except that uninfected cells were used. Cytotoxicity was assessed on day 4 in uninfected MT2 cells by using a XTT (2,3-bis[2-Methoxy-4-nitro-5-sulfophenyl]-2H-tetrazolium-5-carboxyanilide inner salt)-based colorimetric assay (Sigma-Aldrich, St Louis, Mo).

[2] = tested on: recombinant NL4-3 virus (nef section replaced with Renilla luciferase gene) in MT-2 cells; assay: HIV cell culture assay (antiviral activity, luciferase readout in infected MT-2 cells); format: cell-based; conditions: NL43
Experimental: HIV cell culture assay—MT-2 cells, 293T cells and the proviral DNA clone of NL4-3 virus were obtained from the NIH AIDS Research and Reference Reagent Program. MT-2 cells were propagated in RPMI 1640 media supplemented with 10% heat inactivated fetal bovine serum (FBS), […]. The 293T cells were propagated in DMEM media supplemented with 10% heat inactivated FBS, […]. A recombinant NL4-3 proviral clone, in which a section of the nef gene was replaced with the Renilla luciferase gene, was used to make the reference virus used in these studies. The recombinant virus was prepared through transfection of the recombinant NL4-3 proviral clone into 293T cells using Transit-293 Transfection Reagent from Minis Bio LLC (Madison, Wis.). Supernatent was harvested after 2-3 days and the amount of virus present was titered in MT-2 cells using luciferase enzyme activity as a marker by measuring luciferase enzyme activity. Luciferase was quantitated using the EnduRen Live Cell Substrate from Promega (Madison, Wis.). Antiviral activities of compounds toward the recombinant virus were quantified by measuring luciferase activity in MT-2 cells infected for 4-5 days with the recombinant virus in the presence of serial dilutions of the compound.
The 50% effective concentration (EC5o) was calculated by using the exponential form of the median effect equation where (Fa)=1/[1+(ED50/drug conc.)m] (Johnson Va., Byington R T. Infectivity Assay. In Techniques in HIV Research. ed. Aldovini A, Walker B D. 71-76. New York: Stockton Press.1990). The 50% inhibitory concentration (EC50) was calculated by using the exponential form of the median effect equation where percent inhibition=1/[1 +(EC50/drug concentration)m], where m is a parameter that reflects the slope of the concentration-response curve.

Compound C[C@@H]1CC(c2ccc3c(=O)n(-c4ccc(Cl)c5c(NS(C)(=O)=O)nn(C)c45)c([C@H](Cc4cc(F)cc(F)c4)NC(=O)Cn4nc(C(F)F)c5c4C(F)(F)[C@@H]4C[C@H]54)nc3c2)C[C@H](C)O1 (stereo partly drawn) [Example 22, N-((1S)-1-((3P)-3-(4-chloro-1-methyl-3-(methylsulfonamido)-1H-indazol-7-yl)-7-((2R,6S)-2,6-dimethyltetrahydro-2H-pyran-4-yl)-4-oxo-3,4-dihydroquinazolin-2-yl)-2-(3,5-difluorophenyl)ethyl)-2-((3bS,4aR)-3-(difluoromethyl)-5,5-difluoro-3b,4,4a,5-tetrahydro-1H-cyclopropa[3,4]cyclopenta[1,2-c]pyrazol-1-yl)acetamide] has a CC50 at 4 day [1] greater than 500 nM and a pEC50 [2] of 10.09.
